Test results published in patent EP2769738B1, “Conjugated TLR7 and/or TLR8 and TLR2 polycationic agonists” (Invivogen, priority 2013, dated 2014).
Values joined by “and” are separate entries in the source; they are usually repeats but may differ in a detail not shown here. Equal entries are not always repeated.

Experiments:
[1] = Determination of nanoparticle (lipoplex) size by dynamic light scattering; assay type: physicochemical; conditions: ratio 3:24 (w:w); for Conformity (C)/ Non-conformity (NC) / Mean Diameter (nm): complexes with pDNA; for Mean Diameter (nm): dynamic light scattering at 25°C; for Mean Diameter (nm) / PDI: triplicate measurements; for PDI: polydispersity index of complexes with pDNA, 25°C
Description: • 1. Preparative HPLC Method: Unless otherwise indicated, the compounds described herein were purified by RP-MPLC ARMEN® Spot Flash Liquid Chromatography (ARMEN Instrument, Saint Ave, France) on a preparative column (SVF D26) packed with 25-40 µm C18 resin (Merck chimie SAS), by applying a linear gradient of 0-10% MeCN in NH4OAc (10 mM) solution (pH = 9) over 60 min at a 15 mL/min flow rate. The purification was monitored at 254 nm. Suitable fractions were pooled and lyophilised. • 2. Proton NMR Spectra: Unless otherwise indicated, all ^1H NMR spectra were run on a Bruker series 300 MHz instrument. Where so characterized, all observed protons are reported as parts-per-million (ppm) downfield from tetramethylsilane (TMS) or other internal reference in the appropriate solvent indicated. NMR spectra were recorded on a Brucker 300 spectrometer. For ^1H (300 MHz) spectra δ values were referenced to CDCI3-d1 (7.26 ppm), DMSO- d6 (2.50 ppm), D2O-d2 (4.79 ppm) or MeOD-d4 (3.31 ppm). The peak patterns are indicated as follows: s: singlet, sl: large singlet, d: doublet, t: triplet, q: quartet, m: multiplet. • 3. Mass Spectra (MS): Analyses were run on an Agilent Model 6130 quadrupole MS. Unless otherwise indicated, all mass spectral data for starting materials, intermediates and/or exemplary compounds are reported as mass/charge (m/z), having an (M+H)^+ molecular ion. The molecular ion reported was obtained by electrospray detection method (commonly referred to as an ESI MS). Compounds having an isotopic atom, such as bromine and the like, are generally reported according to the detected isotopic pattern, as appreciated by those skilled in the art. • 4. Particle size: Particle size was determined using a Malvern Nanosizer (Malvern, Worcestershire, UK) and Malvern ZETASIZER.RTM. (Malvern, Worcestershire, UK). • 5. Naming Convention The compounds disclosed and described herein have been named using the naming convention provided with Chem-Draw Ultra 11.0 software, available in Chem. Office. In some instances, compounds were named with the term "spermine" inserted where appropriate. For example, where the spermine is substituted with Boc, "N1,N5,N10-TriBoc-spermine" is added to the Chem-Draw nomenclature in the appropriate place. Chem-Draw utilizes the ISIS Draw software compound naming convention, as appreciated by those skilled in the art.
For pDNA:TLR7-TLR2 polyamine molecules complexes, a ratio pDNA:TLR7-TLR2 polyamine molecules of 3:24 (w:w) was prepared in serum-free culture medium or in 5% glucose. The TLR7-TLR2 conjugated compound of interest was prediluted in serum-free culture medium or in 5% glucose and incubated for 5 minutes at room temperature, prior to the addition of an endotoxin-free, salt-free preparation of pDNA. In these experiments, the pBsr2pCpGLacZh plasmid was used in the pDNA:TLR7-TLR2 polyamine molecule complexes. The pDNA:TLR7-TLR2 polyamine molecule mixtures were incubated at room temperature for 30 minutes to allow the formation of the complex. The control used in these experiments was the cationic lipid transfection agent LyoVec™ (InvivoGen) prepared in a similar manner.
In order to confirm that TLR7-TLR2 polyamine molecules complex DNA, lipoplex size was determined. The physical characterization of complex was achieved by dynamic light scattering using the analytical equipment for laser diffraction Zetasizer Nano-ZS (Malvern). pDNA:TLR7-TLR2 polyamine molecule complexes were prepared as described above. Subsequently, 50µl of pDNA: TLR7-TLR2 polyamine molecule complexes were placed into a disposable sizing cuvette and measurements were made under conditions defined according to manufacturer's instructions. The measurements were made at 25°C in triplicate and a size distribution report was obtained. […]

[2] = system: ISG54 promoter activity in RAW-ISG54 reporter cells; test: IFN response assay, RAW-ISG54 luciferase reporter cells; assay type: cell-based, mouse; conditions: Figure 6A, in complexes with pDNA 3:24 (w:w), overnight
Description: The effect of the pDNA:TLR7-TLR2 polyamine molecules complexes on inducing an interferon response was examined. pDNA:TLR7-TLR2 polyamine molecules mixtures (pDNA:TLR7-TLR2 polyamine molecules ratio 3:24, w:w) in serum-free medium or 5% glucose were prepared as described above and added to IFN reporter cells. Luciferase reporter cell lines were used to assay interferon response. A plasmid containing an interferon-inducible luciferase reporter gene was introduced into mouse RAW 264.7 macrophages and mouse B16 melanoma cells, giving rise to the RAW-ISG54 and B16-ISG54 reporter cell lines respectively. Expression of the luciferase reporter gene by the plasmid is under the control of an interferon-inducible promoter (I-ISG54) comprising five interferon-stimulated response elements (ISRE) and the minimal promoter of the human ISG-54K (Interferon Stimulation of a Gene encoding a 54 kDa protein) gene. The ISG-54K gene is induced by interferon regulatory factor 3 (IRF3), which has a key involvement in […] responses (Grandvaux et al. 2002) and the minimal promoter of the human ISG-54K gene contains two ISRE sites and fully inducible by type I interferons (IFN-α and IFN-β) and interferon regulatory factors (IRFs) (Wathelet et al. 1988; Grandvaux et al. 2002).
The RAW-ISG54 and B16-ISG54 reporter cell lines were seeded onto 96 well microtiter plates at 100,000 cells per well and 75,000 cells per well respectively. […] The induced luciferase expression was assessed in the reporter cell lines using a coelenterazine-base luminescence assay reagent, the Quanti-LucTM (InvivoGen). Secreted luciferase activity was determined by bioluminescence quantification of the cell culture media using a microplate luminometer (FLUOstar OPTIMA from BMG Labtech).

For `CCCCCCCCCCCCCCCC(=O)OCC(CSC[C@H](N)C(=O)N[C@@H](CCCCNC(=O)CNC(=O)c1ccc(Cn2c(O)nc3c(N)nc(NCCCC)nc32)cc1)C(=O)NCCCNCCCCNCCCN)OC(=O)CCCCCCCCCCCCCCC` (stereo partly drawn) [CL475, (6R,9S)-6,23-diamino-9-(4-(2-(4-((6-amino-2-(butylamino)-8-hydroxy-9H-purin-9-yl)methyl)benzamido)acetamido)butyl)-7,10-dioxo-4-thia-8,11,15,20-tetraazatrico sane-1,2-diyl dipalmitate], the “Conformity (C)/ Non-conformity (NC)” value [1] was “C (ranged between 140 and 200 nm in diameter were considered to show conformity)”, the “Mean Diameter (nm)” value [1] was 145,9 nm and 155,8 nm and 153,5 nm and the PDI [1] was 0,193 and 0,176 and 0,158.

For `CCCCCCCCCCCCCCCC(=O)OCC(CSC[C@H](N)C(=O)NCCCC[C@H](NC(=O)c1ccc(Cn2c(O)nc3c(N)nc(NCCCC)nc32)cc1)C(=O)NCCCNCCCCNCCCN)OC(=O)CCCCCCCCCCCCCCC` (stereo partly drawn) [CL486, (6R,13S)-6,27-diamino-13-(4-((6-amino-2-(butylamino)-8-hydroxy-9H-purin-9-yl)methyl)benzamido)-7,14-dioxo-4-thia-8,15,19,24-tetraazaheptacosane-1,2-diyl dipalmitate], the “Conformity (C)/ Non-conformity (NC)” value [1] was “C (ranged between 140 and 200 nm in diameter were considered to show conformity)”, the “Mean Diameter (nm)” value [1] was 209,2 nm and 179,7 nm and 202,0 nm and the PDI [1] was 0,236 and 0,232 and 0,234.

For `CCCCCCCCCCCCCCCC(=O)OCC(CSC[C@H](N)C(=O)NCCCC[C@H](NC(=O)CNC(=O)c1ccc(Cn2c(O)nc3c(N)nc(NCCCC)nc32)cc1)C(=O)NCCCNCCCCNCCCN)OC(=O)CCCCCCCCCCCCCCC` (stereo partly drawn) [CL487, (6R,13S)-6,27-diamino-13-(2-(4-((6-amino-2-(butylamino)-8-hydroxy-9H-purin-9-yl)methyl)benzamido)acetamido)-7,14-dioxo-4-thia-8,15,19,24-tetraazaheptacosane-1,2-diyl dipalmitate], the “Conformity (C)/ Non-conformity (NC)” value [1] was “C (ranged between 140 and 200 nm in diameter were considered to show conformity)”, the “Mean Diameter (nm)” value [1] was 148,1 nm and 165,6 nm and 160,0 nm and the PDI [1] was 0,23 and 0,255 and 0,241.

For `CCCCCCCCCCCCCCCC(=O)OCC(CSC[C@H](N)C(=O)N[C@@H](COC(=O)c1ccc(Cn2c(O)nc3c(N)nc(NCCCC)nc32)cc1)C(=O)NCCCNCCCCNCCCN)OC(=O)CCCCCCCCCCCCCCC` (stereo partly drawn) [CL514, (6R,9S)-6,23-diamino-9-((4-((6-amino-2-(butylamino)-8-hydroxy-9H-purin-9-yl)methyl)benzoyloxy)methyl)-7,10-dioxo-4-thia-8,11,15,20-tetraazatricosane-1,2-diyl dipalmitate], the “ability to induce an IFN response (ISG54 promoter activity) in RAW-ISG54 reporter cells” value (“ability to induce an IFN response” for short) [2] was “induce an IFN response in RAW-ISG54 reporter cells”, the “Conformity (C)/ Non-conformity (NC)” value [1] was “C (ranged between 140 and 200 nm in diameter were considered to show conformity)” and the “Mean Diameter (nm)” value [1] was 249,1 nm and 309,6 nm and 258,3 nm. For the same compound, the PDI [1] was 0,303 and 0,354 and 0,372.

With `CCCCCCCCCCCCCCCC(=O)OCC(CSC[C@H](N)C(=O)N[C@@H](CCC(=O)NCCCNCCCCNCCCN)C(=O)Nc1ccc(Cn2c(O)nc3c(N)nc(NCCCC)nc32)cc1)OC(=O)CCCCCCCCCCCCCCC` (stereo partly drawn) [CL527, (6R,9S)-6,25-diamino-9-(4-((6-amino-2-(butylamino)-8-hydroxy-9H-purin-9-yl)methyl)phenylcarbamoyl)-7,12-dioxo-4-thia-8,13,17,22-tetraazapentacosane-1,2-diyl dipalmitate] the “ability to induce an IFN response” value [2] was “induce an IFN response in RAW-ISG54 reporter cells”, the “Conformity (C)/ Non-conformity (NC)” value [1] was “C (ranged between 140 and 200 nm in diameter were considered to show conformity)” and the “Mean Diameter (nm)” value [1] was 175,1 nm and 156,9 nm and 168,3 nm. The PDI [1] was 0,253 and 0,239 and 0,258.

With `CCCCCCCCCCCCCCCC(=O)OCC(CSC[C@H](N)C(=O)NCCCNCCCCNCCCNC(=O)CNC(=O)c1ccc(Cn2c(O)nc3c(N)nc(NCCCC)nc32)cc1)OC(=O)CCCCCCCCCCCCCCC` (stereo partly drawn) [CL553, (20R)-20-amino-1-(4-((6-amino-2-(butylamino)-8-hydroxy-9H-purin-9-yl)methyl)phenyl)-1,4,19-trioxo-22-thia-2,5,9,14,18-pentaazapentacosane-24,25-diyl dipalmitate] the “ability to induce an IFN response” value [2] was “induce an IFN response in RAW-ISG54 reporter cells”, the “Conformity (C)/ Non-conformity (NC)” value [1] was “C (ranged between 140 and 200 nm in diameter were considered to show conformity)” and the “Mean Diameter (nm)” value [1] was 170.0 nm and 190.0 nm and 180,2 nm. For the same compound, the PDI [1] was 0,226 and 0,230 and 0,237.
